Experiments:
cathepsin B = cathepsin B (Capra hircus, UniProt A0A452G2V1); assay: Inhibition of purified goat liver cathepsin B, BANA substrate, pH 6.0; type: biochemical
cathepsin H = target: T1, cathepsin H (Capra hircus, UniProt A0A452G5L2); assay: Inhibition of purified goat liver cathepsin H, Leu-βNA substrate, pH 7.0; type: biochemical
T1 sequence (A0A452G5L2 with tags, fused parts or gaps): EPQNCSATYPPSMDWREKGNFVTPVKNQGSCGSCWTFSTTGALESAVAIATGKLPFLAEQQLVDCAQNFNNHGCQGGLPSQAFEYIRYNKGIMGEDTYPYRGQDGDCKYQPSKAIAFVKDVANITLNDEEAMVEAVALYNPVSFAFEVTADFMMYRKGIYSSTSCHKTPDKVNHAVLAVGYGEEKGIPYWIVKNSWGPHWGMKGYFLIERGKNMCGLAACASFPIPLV

cathepsin L = cathepsin L (Capra hircus, UniProt A0A452FFI6); assay: Inhibition of purified goat liver cathepsin L, ZPheArg-4mβNA substrate, pH 6.0; type: biochemical
goat brain cathepsin B = conditions: read-out: Ki, goat brain cathepsin B; competitive; cited from earlier work
goat brain cathepsin L = conditions: read-out: Ki, goat brain cathepsin L; cited from earlier work

SMILES | Ki (cathepsin B) [µM] | Ki (cathepsin H) [µM] | Ki (cathepsin L) [nM] | inhibition at 1 µM (cathepsin B; read-out: % inhibition of cathepsin B) [%] | inhibition at 10 µM (cathepsin H; read-out: % inhibition of cathepsin H) [%] | inhibition at 0.001 µM (cathepsin L; read-out: % inhibition of cathepsin L) [%] | Ki (goat brain cathepsin B) [µM] | Ki (goat brain cathepsin L) [µM]
NC(=O)N/N=C(\C=C\c1ccccc1Cl)c1ccccc1 [2a′, (1E)-1-((E)-3-(2-chlorophenyl)-1-phenylallylidene)semicarbazide] | 2.7 ± 0.04 | 33 ± 0.4 | 0.04 ± 0.0003 | – | – | – | – | –
NC(=O)N/N=C(\C=C\c1ccc(Cl)cc1)c1ccccc1 [2c′, (1E)-1-((E)-3-(4-chlorophenyl)-1-phenylallylidene)semicarbazide] | 36.4 ± 0.5 | 21 ± 0.2 | 0.93 ± 0.007 | – | – | – | – | –
O=C(/C=C/c1ccccc1Cl)c1ccccc1 [Compound 1a, (E)-3-(2-chlorophenyl)-1-phenylprop-2-en-1-one] | 19.5 ± 0.2 | 110 ± 1 | 6 ± 0.02 | – | – | – | – | –
O=C(/C=C/c1cccc(Cl)c1)c1ccccc1 [Compound 1b, (E)-3-(3-chlorophenyl)-1-phenylprop-2-en-1-one] | 130 ± 2 | 312 ± 2 | 0.04 ± 0.0001 | – | – | – | – | –
O=C(/C=C/c1cccc([N+](=O)[O-])c1)c1ccccc1 [Compound 1g, (E)-3-(3-nitrophenyl)-1-phenylprop-2-en-1-one] | 100 ± 1 | 60 ± 0.2 | 2.05 ± 0.03 | – | – | – | – | –
NC(=O)N/N=C(/C=C/c1ccccc1Cl)c1ccccc1 [Compound 2a, (1Z)-1-((E)-3-(2-chlorophenyl)-1-phenylallylidene)semicarbazide] | 0.207 ± 0.001 | 43 ± 0.2 | 1.78 ± 0.02 | – | – | – | – | –
NC(=O)N/N=C(/C=C/c1ccc(Cl)cc1)c1ccccc1 [Compound 2c, (1Z)-1-((E)-3-(4-chlorophenyl)-1-phenylallylidene)semicarbazide] | 27.3 ± 0.4 | 29 ± 0.5 | 1.17 ± 0.02 | – | – | – | – | –
NC(=O)N/N=C(/C=C/c1cccc([N+](=O)[O-])c1)c1ccccc1 [Compound 2g, (1Z)-1-((E)-3-(3-nitrophenyl)-1-phenylallylidene)semicarbazide] | 41.3 ± 0.5 | 23 ± 0.3 | 2.05 ± 0.02 | – | – | – | – | –
NC(=O)N1N=C(c2ccccc2)CC1c1ccccc1Cl (centres unmarked) [Compound 3a, 5-(2′-chlorophenyl)-3-phenyl-2-pyrazoline-1-carboxamide] | 9.4 ± 0.03 | 60 ± 0.3 | 31.6 ± 0.4 | – | – | – | – | –
NC(=O)N1N=C(c2ccccc2)CC1c1cccc(Cl)c1 (centres unmarked) [Compound 3b, 5-(3′-chlorophenyl)-3-phenyl-2-pyrazoline-1-carboxamide] | 82.7 ± 1 | 25 ± 0.5 | 50.5 ± 0.3 | – | – | – | – | –
NC(=O)N1N=C(c2ccccc2)CC1c1ccc(Cl)cc1 (centres unmarked) [Compound 3c] | 39 ± 0.2 | 66 ± 0.4 | 33 ± 0.1 | – | – | – | – | –
COc1ccccc1C1CC(c2ccccc2)=NN1C(N)=O (centres unmarked) [Compound 3d] | 14.8 ± 0.07 | 40 ± 0.1 | 217 ± 4 | – | – | – | – | –
COc1cccc(C2CC(c3ccccc3)=NN2C(N)=O)c1 (centres unmarked) [Compound 3e] | 34.9 ± 0.1 | 43 ± 0.1 | 8.2 ± 0.06 | – | – | – | – | –
COc1ccc(C2CC(c3ccccc3)=NN2C(N)=O)cc1 (centres unmarked) [Compound 3f] | 69.3 ± 0.07 | 48 ± 0.2 | 0.5 ± 0.002 | – | – | – | – | –
NC(=O)N1N=C(c2ccccc2)CC1c1cccc([N+](=O)[O-])c1 (centres unmarked) [Compound 3g, 5-(3′-nitrophenyl)-3-phenyl-2-pyrazoline-1-carboxamide] | 58.1 ± 0.05 | 38 ± 0.2 | 0.4 ± 0.005 | – | – | – | – | –
NC(=O)N1N=C(c2ccccc2)CC1c1ccc([N+](=O)[O-])cc1 (centres unmarked) [Compound 3h] | 39 ± 0.03 | 60 ± 0.3 | 16.9 ± 0.3 | – | – | – | – | –
NC(=O)N1N=C(c2ccccc2)CC1c1ccccc1 (centres unmarked) [Compound 3i] | 52.4 ± 0.01 | 192 ± 0.4 | 86.2 ± 0.2 | – | – | – | – | –
Cc1ccc(C2CC(c3ccccc3)=NN2C(N)=O)cc1 (centres unmarked) [Compound 3j] | 116 ± 2 | 48 ± 0.5 | 23.4 ± 0.2 | – | – | – | – | –
CC(=O)N[C@@H](CC(C)C)C(=O)N[C@@H](CC(C)C)C(=O)N[C@H](C=O)CCCNC(=N)N [Leupeptin, reference compound] | – | – | – | ~98.8 | ~52 | 89.2 | 0.0125 | 0.00145

Source: paper PMC7124378 (International Journal of Biological Macromolecules, 2015)
